Patent publication US20240118281A1, “ANTICANCER COMPOUNDS AND USES THEREOF” (University of Florida Research Foundation, Incorporated, priority 2021, published 2024)

Tests used:
DR5 = experiment: Disulfide bond-mediated oligomerization and levels, non-reducing immunoblot; format: cell-based
Text: (§1) The BT20, BT474, BT549, MCF7, MDA-MB-231, MDA-MB-436, MDA-MB-468, HCC1143, HCC1500, HCC1569, HCC1937, HCC1954, Hs578t, and T47D cells lines were purchased from American Type Culture Collection (ATCC) (Manassas, VA). The HCI-001 cell line was derived from an ER-/PR-/HER2- patient-derived xenograft originally isolated from a patient as described previously (DeRose Y S, et al. Nat Med 2011; 17: 1514-1520). The HCI-001/LVM2 model was derived from the HCI-001 cell line by performing two rounds of selection for liver metastasis, as described previously (Wang M, et al. Cell Death Discovery 2019; 5: 153). Cell lines were grown in Dulbecco's Modified Eagle's Medium (GE Healthcare Life Sciences, Logan, UT) containing 10% fetal bovine serum (10% FBS—DMEM) in a humidified incubator with 5% CO2 at 37° C. Cell lysates were prepared as described previously (Law B K, et al. Mol Cell Biol. 2002; 22: 8184-8198). Immunoblot analysis was performed utilizing the following antibodies purchased from Cell Signaling Technology (Beverly, MA) [Akt, #4691; P-Akt[T308], #13038; ATF4, #11815; CHOP, #2895; Cleaved Caspase 8, #9496; DR4, #42533; DR5, #8074; EGFR, #4267; GRP78, #3177; HER3, #4754; PARP, #9532; PDIA1, #3501; XBP1s, #12782], from Santa Cruz Biotechnology (Santa Cruz, CA) [Actin, sc-47778; AGR2/3, sc-376653; AGR3, sc-390940; ERO1-a, sc-100805; and ERp44, sc-393687], or from Rockland Immunochemicals, Inc. (Limerick, PA), Streptavidin-Alkaline Phosphatase conjugated (SA-AP), S000-05.
(§2) To assess protein disulfide bond-mediated oligomerization, cells were treated with DDAs for 24 h in 10% FBS-DMEM. Cells were subsequently scraped directly into the media and pelleted by centrifugation. Cells were extracted directly into boiling 2×-SDS-Sample Buffer containing 100 mM NEM and boiled for 10 min. Samples were sonicated, followed by centrifugation for 20 min at room temperature. Samples were subsequently analyzed by SDS-PAGE and immunoblot.

ERAP1 = ERAP1 retention/secretion in MDA-MB-468 cells, immunoblot; format: cell-based; conditions: MDA-MB-468 cells
Text: as §1, §2

ERp44/DR5 complexes [1] = biological target: T1, ERp44/DR5 complexes (Homo sapiens, UniProt Q9BS26); experiment: ERp44 co-immunoprecipitation; format: cell-based; conditions: MDA-MB-468 cells inducibly expressing wild type DR5, 24 h, FIG. 7D
T1 construct: endogenous in cells; host or cells: MDA-MB-468
T1 sequence (Q9BS26 30-406): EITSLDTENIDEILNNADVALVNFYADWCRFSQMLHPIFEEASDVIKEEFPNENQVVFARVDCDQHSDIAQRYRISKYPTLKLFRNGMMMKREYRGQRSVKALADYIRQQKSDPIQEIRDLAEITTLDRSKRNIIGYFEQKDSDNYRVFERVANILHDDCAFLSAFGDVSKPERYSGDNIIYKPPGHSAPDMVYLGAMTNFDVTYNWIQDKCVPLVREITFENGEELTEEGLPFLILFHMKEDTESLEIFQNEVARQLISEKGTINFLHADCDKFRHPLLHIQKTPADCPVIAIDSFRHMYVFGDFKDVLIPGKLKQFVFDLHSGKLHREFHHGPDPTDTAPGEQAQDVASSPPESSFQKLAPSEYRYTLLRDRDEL
T1 sequence (O14763 56-440 partner): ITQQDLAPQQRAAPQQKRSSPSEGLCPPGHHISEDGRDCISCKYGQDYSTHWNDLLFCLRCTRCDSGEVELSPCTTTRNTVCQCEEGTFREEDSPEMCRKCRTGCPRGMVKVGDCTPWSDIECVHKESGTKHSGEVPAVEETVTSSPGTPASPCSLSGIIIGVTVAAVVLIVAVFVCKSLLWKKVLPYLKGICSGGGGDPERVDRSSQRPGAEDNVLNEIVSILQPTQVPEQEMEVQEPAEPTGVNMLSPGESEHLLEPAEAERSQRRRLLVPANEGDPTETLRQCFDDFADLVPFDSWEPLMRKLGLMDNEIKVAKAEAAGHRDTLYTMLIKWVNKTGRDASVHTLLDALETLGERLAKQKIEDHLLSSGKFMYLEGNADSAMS

ERp44/DR5 complexes [2] = biological target: T2, ERp44/DR5 complexes (Homo sapiens, UniProt Q9BS26); experiment: ERp44 co-immunoprecipitation; format: cell-based; conditions: MDA-MB-468 cells inducibly expressing Δ81-178 DR5, 24 h, FIG. 7D
T2 construct: endogenous in cells; host or cells: MDA-MB-468
T2 sequence (Q9BS26 30-406, one chain of several): as the sequence (Q9BS26 30-406) above

AGR2 [3] = biological target: T3, AGR2 (Homo sapiens, UniProt O95994); experiment: AGR2 dimer formation in stable cell lines, non-reducing immunoblot; format: cell-based; design: expressed in transfected cells; conditions: MDA-MB-468 stable cell lines, 5 μM, 24 h, FIG. 2F
T3 sequence (O95994 21-175): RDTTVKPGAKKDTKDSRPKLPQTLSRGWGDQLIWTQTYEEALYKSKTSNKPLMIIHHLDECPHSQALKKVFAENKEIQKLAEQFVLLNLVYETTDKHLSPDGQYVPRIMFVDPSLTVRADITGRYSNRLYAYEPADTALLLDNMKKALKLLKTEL
Procedure: as §2

PDIA1 = PDIA1 (Homo sapiens, UniProt P07237); experiment: PDIA1 disulfide bonding with client proteins, non-reducing immunoblot; format: cell-based; design: endogenous in cells; host or cells: MDA-MB-468; conditions: MDA-MB-468 cells, 5 μM, 24 h, FIG. 3E
Procedure: as §2

AGR2 [4] = biological target: T3, AGR2; experiment: DDA-AGR2 binding assay, Streptavidin-Alkaline Phosphatase blot; design: made in house; host or cells: E. coli BL21(DE3), pET-45b(+)
Procedure: Competent BL21(DE3) cells were transformed with either the AGR2/pET-45b(+) or AGR2 C81S/pET-45b(+) vectors. Protein expression was induced by the addition of 50 µM Isopropyl β-D-1-thiogalactopyranoside (Fisher Scientific, Fair Lawn, NJ) to bacterial cell cultures for 2.5 hours and shaking at 37° C. Bacterial cells were subsequently pelleted and dissolved in Mouse Tonicity Phosphate Buffered Saline (MTPBS) containing 1% Triton X-100 and sonicated for 20 seconds on ice, followed by centrifugation for 10 min at 4° C. to pellet cell debris. The supernatant was transferred to a new tube, followed by the addition of TALON Resin (Clontech, Mountain View, CA) and mixing on a Nutator for 30 min at 4° C. The TALON Resin was pelleted by centrifugation and washed twice with MTPBS and twice with MTPBS containing 30 mM Imidazole. Protein bound to the TALON Resin was eluted with 400 mM Imidazole and precipitated with 60% saturated ammonium sulfate. The precipitated protein was pelleted by centrifugation, dissolved in MTPBS containing 1 mM DTT and 1 mM EDTA, and subsequently dialyzed against a solution of MTPBS containing 10 μM DTT and 30% Glycerol.
Purified His6-AGR2 or His6-AGR2 C81S, as prepared above, or His6-AGR2 (PRO-580) or His6-AGR3 (PRO-242) obtained from ProSpec (New Brunswick NJ) were incubated with or without varying concentrations of the unlabeled DDA competitors, tcyDTDO or dMtcyDTDO, and 30 μM Biotin-GlyPyrDTDO or Biotin-PyrDTDO in buffer (20 mM HEPES (pH 7.4), 1 mM EDTA, 1 mM EGTA, 5% Glycerol, 1 nM Microcystin, 1 mM Na3VO4, and 40 mM Na2H2P2O7) containing 1% Triton-X 100 for 30 min at 37° C. […] Therefore, the two probes were used interchangeably. Reactions were stopped by boiling the samples in 2×-SDS-Sample Buffer containing 100 mM NEM for 10 min. Biotin-DDA labeling of protein was verified by blotting with Streptavidin-Alkaline Phosphatase (Rockland Immunochemicals, Inc., Limerick, PA). ERp44 (PRO-547) and PDIA1 (ENZ-262) were obtained from ProSpec and used in experiments examining the binding of these proteins to Biotin-PyrDTDO.

[5] = MDA-MB-468 cells, 24 h, compared with tcyDTDO, FIG. 1E left

Chain of PDIA1 (P07237 18-508): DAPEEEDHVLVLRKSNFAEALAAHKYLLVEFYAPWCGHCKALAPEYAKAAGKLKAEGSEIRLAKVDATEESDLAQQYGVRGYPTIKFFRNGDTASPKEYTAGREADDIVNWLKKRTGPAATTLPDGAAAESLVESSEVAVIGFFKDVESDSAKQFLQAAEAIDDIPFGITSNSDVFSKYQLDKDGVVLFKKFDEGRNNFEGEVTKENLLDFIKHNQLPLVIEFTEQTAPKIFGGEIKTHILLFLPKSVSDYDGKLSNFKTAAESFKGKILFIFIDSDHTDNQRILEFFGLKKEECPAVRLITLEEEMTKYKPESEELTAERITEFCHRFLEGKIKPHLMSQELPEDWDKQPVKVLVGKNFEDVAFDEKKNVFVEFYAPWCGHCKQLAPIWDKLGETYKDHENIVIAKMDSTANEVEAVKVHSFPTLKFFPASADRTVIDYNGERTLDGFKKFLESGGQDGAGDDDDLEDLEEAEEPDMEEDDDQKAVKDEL

CO[C@H]1C[C@@H]2CS(=O)(=O)SC[C@H]2C[C@@H]1OC [dMtcyDTDO, dimethoxy-tcyDTDO]
Levels and oligomerization of DR5, densitometry (DR5; 0, 1.25, 2.5, 5 uM, FIG. 1F): increases the levels of both oligomeric and monomeric forms of DR5
Concentration at which oligomerization of DR5 was observed (DR5; MDA-MB-468 cells, 24 h, FIG. 1E right): 1.25 µM
DR4/5 oligomerization at the same concentration (DR5) (DR5; [5]): more DR4/5 oligomerization
DR5 levels at the same concentration (DR5; [5]): higher DR5 levels
ERAP1 levels in the culture medium (ERAP1; 5 μM, 24 h, FIG. 4F upper): dramatically increased
ERAP1 secretion, statistical analysis (ERAP1; 5 μM, 24 h, N=3, FIG. 4F lower): induced ERAP1 secretion in a statistically significant manner
Cellular ERAP1 levels, immunoblot (ERAP1; 24 h, FIG. 4B): decreased cellular ERAP1 levels
Cellular ERAP1 levels, quantitation across four experiments (ERAP1; FIG. 4C): decreased ERAP1 levels and ERp44 binding to client proteins in a statistically significant manner
ERp44 binding to wild type DR5 in treated cells (ERp44/DR5 complexes [1]): wild type DR5 bound ERp44
ERp44 binding to DR5[Δ81-178] in treated cells (ERp44/DR5 complexes [2]): barely detectable
AGR2 dimer formation in cells with enforced AGR2 expression (AGR2 [3]): blocked dimer formation by wild type AGR2
Disulfide bonding of PDIA1 with client proteins (PDIA1): reduces disulfide bonding of ERp44 and PDIA1 with multiple proteins
Monomeric levels of PDIA1 (PDIA1): minimal effect on monomeric levels
Ability to block Biotin-GlyPyrDTDO binding to AGR2, compared with tcyDTDO (AGR2 [4]; FIG. 2E, 9E-F): more effective competitor
Competition with Biotin-GlyPyrDTDO binding to AGR2 (AGR2 [4]; molar excess, pre-incubation with 600 μM, FIG. 2D): partially prevented Biotin-GlyPyrDTDO binding
